Target: bovine cardiac myofibrils (full-length cardiac myosin ATPase in the native sarcomere) (Bos taurus (Bovine), UniProt Q9BE39)
Experiment: Skinned bovine cardiac myofibril ATPase assay (PK/LDH-coupled)
Format: biochemical
Settings: Ca2+ activating to 75% of maximal rate; for CDMF75 IC15: concentration giving 15% inhibition; for IC50: read-out: CDMF75 IC50
Outline: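 Inhibition of steady-state ATPase read at 340 nm through a PK/LDH-coupled NADH system (0.5 mM NADH, 1.5 mM PEP). Detergent-skinned bovine cardiac myofibrils, 1 mg/mL, were tested at pH 6.8 in PIPES/MgCl2 with 50 μM ATP and calcium adjusted to give pCa50 or pCa75 activation.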

Sequence of bovine cardiac myofibrils (full-length cardiac myosin ATPase in the native sarcomere) (Q9BE39 whole entry): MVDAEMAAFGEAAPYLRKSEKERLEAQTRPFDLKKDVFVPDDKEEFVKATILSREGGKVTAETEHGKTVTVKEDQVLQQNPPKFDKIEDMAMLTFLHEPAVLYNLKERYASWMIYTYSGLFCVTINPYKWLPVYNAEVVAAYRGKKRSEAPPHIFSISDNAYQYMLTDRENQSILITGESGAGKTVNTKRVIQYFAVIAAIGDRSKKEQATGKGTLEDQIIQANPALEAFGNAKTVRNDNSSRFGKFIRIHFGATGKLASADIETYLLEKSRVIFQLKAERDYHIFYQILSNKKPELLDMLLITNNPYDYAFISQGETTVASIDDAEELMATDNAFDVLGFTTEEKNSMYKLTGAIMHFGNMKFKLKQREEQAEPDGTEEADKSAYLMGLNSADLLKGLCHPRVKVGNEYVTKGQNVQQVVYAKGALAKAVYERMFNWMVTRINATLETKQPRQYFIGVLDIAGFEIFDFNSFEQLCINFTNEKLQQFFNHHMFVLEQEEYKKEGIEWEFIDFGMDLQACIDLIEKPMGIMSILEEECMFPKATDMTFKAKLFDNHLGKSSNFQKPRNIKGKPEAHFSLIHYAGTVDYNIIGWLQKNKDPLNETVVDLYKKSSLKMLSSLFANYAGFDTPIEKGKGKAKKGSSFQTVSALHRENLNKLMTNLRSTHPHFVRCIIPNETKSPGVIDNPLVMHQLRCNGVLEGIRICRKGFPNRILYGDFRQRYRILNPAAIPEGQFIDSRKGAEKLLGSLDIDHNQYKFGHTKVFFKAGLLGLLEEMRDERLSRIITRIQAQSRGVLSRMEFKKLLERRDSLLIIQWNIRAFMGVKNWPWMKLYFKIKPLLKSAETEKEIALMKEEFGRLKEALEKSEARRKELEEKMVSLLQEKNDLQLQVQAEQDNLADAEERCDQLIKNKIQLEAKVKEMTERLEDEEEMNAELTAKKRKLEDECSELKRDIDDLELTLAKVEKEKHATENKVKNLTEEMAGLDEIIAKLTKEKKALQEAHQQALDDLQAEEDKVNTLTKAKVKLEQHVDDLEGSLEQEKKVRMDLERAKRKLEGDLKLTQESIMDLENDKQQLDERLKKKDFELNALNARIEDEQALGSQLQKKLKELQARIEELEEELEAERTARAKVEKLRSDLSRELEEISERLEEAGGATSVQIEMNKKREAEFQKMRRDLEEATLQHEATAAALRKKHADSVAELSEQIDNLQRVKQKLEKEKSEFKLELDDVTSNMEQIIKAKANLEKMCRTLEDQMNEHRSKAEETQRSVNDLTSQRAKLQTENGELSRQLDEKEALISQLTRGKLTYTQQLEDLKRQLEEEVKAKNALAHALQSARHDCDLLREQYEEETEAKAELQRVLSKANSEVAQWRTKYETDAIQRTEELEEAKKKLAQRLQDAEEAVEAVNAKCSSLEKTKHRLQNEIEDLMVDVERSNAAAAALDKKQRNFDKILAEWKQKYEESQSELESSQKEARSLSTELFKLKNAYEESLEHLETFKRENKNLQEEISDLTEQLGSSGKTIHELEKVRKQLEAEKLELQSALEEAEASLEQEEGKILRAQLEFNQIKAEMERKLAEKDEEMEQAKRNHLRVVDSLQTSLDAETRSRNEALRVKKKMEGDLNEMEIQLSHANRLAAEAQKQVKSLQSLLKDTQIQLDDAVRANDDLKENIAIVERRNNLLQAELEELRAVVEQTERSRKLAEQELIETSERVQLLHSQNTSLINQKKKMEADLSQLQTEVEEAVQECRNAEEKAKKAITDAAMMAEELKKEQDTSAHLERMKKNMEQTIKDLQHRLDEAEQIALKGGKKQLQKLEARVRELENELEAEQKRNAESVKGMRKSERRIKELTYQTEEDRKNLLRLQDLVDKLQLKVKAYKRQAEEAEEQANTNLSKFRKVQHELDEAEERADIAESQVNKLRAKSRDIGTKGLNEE
Sequence of bovine cardiac myofibrils (full-length cardiac myosin ATPase in the native sarcomere) (P85100 whole entry partner): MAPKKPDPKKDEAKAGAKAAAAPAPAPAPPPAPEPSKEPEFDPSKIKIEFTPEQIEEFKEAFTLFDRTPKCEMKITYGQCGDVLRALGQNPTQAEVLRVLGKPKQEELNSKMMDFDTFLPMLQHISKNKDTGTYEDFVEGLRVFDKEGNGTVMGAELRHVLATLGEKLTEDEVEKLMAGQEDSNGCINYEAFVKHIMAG
Sequence of bovine cardiac myofibrils (full-length cardiac myosin ATPase in the native sarcomere) (Q3SZE5 whole entry partner): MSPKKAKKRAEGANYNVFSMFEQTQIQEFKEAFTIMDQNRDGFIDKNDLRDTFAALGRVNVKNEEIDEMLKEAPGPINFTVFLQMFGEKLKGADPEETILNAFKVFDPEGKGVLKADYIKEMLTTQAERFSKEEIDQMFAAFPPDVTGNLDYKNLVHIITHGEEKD

SMILES | CDMF75 IC15 [µM] | IC50 [µM]
[2H]C([2H])([2H])c1nc(-c2ccc3c(c2)CC[C@H]3NC(C)=O)no1 [Compound 408, (R)-N-(5-(5-(methyl-d3)-1,2,4-oxadiazol-3-yl)-2,3-dihydro-1H-inden-1-yl)acetamide] | 2.8 | 12.8
Cc1ncoc1C(=O)N[C@@H]1CCc2cc(-c3noc(C4CCC4)n3)ccc21 [Compound 409, (R)-N-(5-(5-cyclobutyl-1,2,4-oxadiazol-3-yl)-2,3-dihydro-1H-inden-1-yl)-4-methyloxazole-5-carboxamide] | 0.2 | 0.7
Cc1ncc(C(=O)N[C@@H]2CCc3cc(-c4noc(C5CCC5)n4)ccc32)o1 [Compound 410, (R)-N-(5-(5-cyclobutyl-1,2,4-oxadiazol-3-yl)-2,3-dihydro-1H-inden-1-yl)-2-methyloxazole-5-carboxamide] | 0.9 | 3.5
Cc1cc(C(=O)N[C@@H]2CCc3cc(-c4noc(C5CCC5)n4)ccc32)ccn1 [Compound 412, (R)-N-(5-(5-cyclobutyl-1,2,4-oxadiazol-3-yl)-2,3-dihydro-1H-inden-1-yl)-2-methylisonicotinamide] | 0.5 | 1.8
CCc1cc(-c2ccc3c(c2)CC[C@H]3NC(=O)c2cnn(C)c2)no1 [Compound 413, (R)-N-(5-(5-ethylisoxazol-3-yl)-2,3-dihydro-1H-inden-1-yl)-1-methyl-1H-pyrazole-4-carboxamide] | 0.4 | 1.5
CCc1cc(-c2ccc3c(c2)CC[C@H]3NC(=O)c2ccnn2C)no1 [Compound 414, (R)—N-(5-(5-ethylisoxazol-3-yl)-2,3-dihydro-1H-inden-1-yl)-1-methyl-1H-pyrazole-5-carboxamide] | 0.2 | 0.6
CCc1cc(-c2ccc3c(c2)CC[C@H]3NC(=O)c2cnc(C)o2)no1 [Compound 415, (R)-N-(5-(5-ethylisoxazol-3-yl)-2,3-dihydro-1H-inden-1-yl)-2-methyloxazole-5-carboxamide] | 0.5 | 1.7
Cc1cc(-c2ccc3c(c2)CC[C@H]3NC(=O)c2cnc(C)o2)no1 [Compound 416, (R)-2-methyl-N-(5-(5-methylisoxazol-3-yl)-2,3-dihydro-1H-inden-1-yl)oxazole-5-carboxamide] | 1.2 | 4.2
CCc1cc(-c2ccc3c(c2)CC[C@H]3NC(=O)c2ocnc2C)no1 [Compound 417, (R)-N-(5-(5-ethylisoxazol-3-yl)-2,3-dihydro-1H-inden-1-yl)-4-methyloxazole-5-carboxamide] | 0.2 | 0.6
Cc1cc(-c2ccc3c(c2)CC[C@H]3NC(=O)c2ocnc2C)no1 [Compound 418, (R)-4-methyl-N-(5-(5-methylisoxazol-3-yl)-2,3-dihydro-1H-inden-1-yl)oxazole-5-carboxamide] | 0.3 | 1.2
CC(=O)N[C@@H]1CCc2cc(-c3noc(C4CC4)n3)ccc21 [Compound 419, (R)-N-(5-(5-cyclopropyl-1,2,4-oxadiazol-3-yl)-2,3-dihydro-1H-inden-1-yl)acetamide] | 1.2 | 4.7
CCc1cc(-c2ccc3c(c2)OC[C@H]3NC(=O)c2ccnn2C)no1 [Compound 421, (S)-N-(6-(5-ethylisoxazol-3-yl)-2,3-dihydrobenzofuran-3-yl)-1-methyl-1H-pyrazole-5-carboxamide] | 0.3 | 0.8
CCc1cc(-c2ccc3c(c2)OC[C@H]3NC(=O)c2cnc(C)o2)no1 [Compound 422, (S)-N-(6-(5-ethylisoxazol-3-yl)-2,3-dihydrobenzofuran-3-yl)-2-methyloxazole-5-carboxamide] | 0.4 | 1.5
CCc1cc(-c2ccc3c(c2)OC[C@H]3NC(=O)c2cnn(C)c2)no1 [Compound 423, (S)—N-(6-(5-ethylisoxazol-3-yl)-2,3-dihydrobenzofuran-3-yl)-1-methyl-1H-pyrazole-4-carboxamide] | 0.3 | 1.2
CCc1cc(-c2ccc3c(c2)OC[C@H]3NC(=O)c2ocnc2C)no1 [Compound 424, (S)-N-(6-(5-ethylisoxazol-3-yl)-2,3-dihydrobenzofuran-3-yl)-4-methyloxazole-5-carboxamide] | 0.2 | 0.6
CCc1cc(-c2ccc3c(c2)OC[C@H]3NC(=O)c2ccnc(C)c2)no1 [Compound 425, (S)-N-(6-(5-ethylisoxazol-3-yl)-2,3-dihydrobenzofuran-3-yl)-2-methylisonicotinamide] | 0.3 | 1.2
Cc1cc(-c2ccc3c(c2)OC[C@H]3NC(=O)c2cnn(C)c2)no1 [Compound 426, (S)-1-methyl-N-(6-(5-methylisoxazol-3-yl)-2,3-dihydrobenzofuran-3-yl)-1H-pyrazole-4-carboxamide] | 0.8 | 2.6
Cc1cc(-c2ccc3c(c2)OC[C@H]3NC(=O)c2ccnn2C)no1 [Compound 427, (S)-1-methyl-N-(6-(5-methylisoxazol-3-yl)-2,3-dihydrobenzofuran-3-yl)-1H-pyrazole-5-carboxamide] | 0.5 | 1.6
Cc1cc(-c2ccc3c(c2)OC[C@H]3NC(=O)c2cnc(C)o2)no1 [Compound 428, (S)-2-methyl-N-(6-(5-methylisoxazol-3-yl)-2,3-dihydrobenzofuran-3-yl)oxazole-5-carboxamide] | 1.0 | 3.4
Cc1cc(-c2ccc3c(c2)OC[C@H]3NC(=O)c2ocnc2C)no1 [Compound 429, (S)-4-methyl-N-(6-(5-methylisoxazol-3-yl)-2,3-dihydrobenzofuran-3-yl)oxazole-5-carboxamide] | 0.5 | 1.5
Cc1cc(C(=O)N[C@@H]2COc3cc(-c4cc(C)on4)ccc32)ccn1 [Compound 430, (S)-2-methyl-N-(6-(5-methylisoxazol-3-yl)-2,3-dihydrobenzofuran-3-yl)isonicotinamide] | 1.0 | 3.2
CCc1cc(-c2ccc3c(c2)CC[C@H]3NC(=O)c2cn[nH]c2C)no1 [Compound 431, (R)—N-(5-(5-ethylisoxazol-3-yl)-2,3-dihydro-1H-inden-1-yl)-5-methyl-1H-pyrazole-4-carboxamide] | 0.3 | 0.9
Cc1cc(-c2ccc3c(c2)CC[C@H]3NC(=O)c2cn[nH]c2C)no1 [Compound 432, (R)-5-methyl-N-(5-(5-methylisoxazol-3-yl)-2,3-dihydro-1H-inden-1-yl)-1H-pyrazole-4-carboxamide] | 0.8 | 2.5
Cc1nc(-c2ccc3c(c2)CC[C@H]3NC(=O)C(F)F)no1 [Compound 435, (R)-2,2-difluoro-N-(5-(5-methyl-1,2,4-oxadiazol-3-yl)-2,3-dihydro-1H-inden-1-yl)acetamide] | 2.6 | 11.3
CCc1nc(-c2ccc3c(c2)CC[C@H]3NC(=O)C(F)F)no1 [Compound 436, (R)-N-(5-(5-ethyl-1,2,4-oxadiazol-3-yl)-2,3-dihydro-1H-inden-1-yl)-2,2-difluoroacetamide] | 0.6 | 2.1
